Target: T1, human PF4 (Homo sapiens, UniProt P02776)
T1 construct: PF4 is a 70 amino acid, lysine-rich 7.8 kDa platelet-specific protein; made in house; host or cells: Escherichia coli BL21DE3 pLysS (pT7-7) and/or Drosophila S2 cells
T1 sequence (P02776 32-101): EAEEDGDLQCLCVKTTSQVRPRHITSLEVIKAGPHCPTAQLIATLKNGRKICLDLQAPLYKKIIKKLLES
Assay: Inhibition of PF4 tetramer formation (BS3 cross-linking, SDS-PAGE)
Assay type: biochemical
Settings: for inhibition at 1 µM: 1 μM inhibitor; for inhibition at 1 µM / inhibition at 3 µM / inhibition at 5 µM / inhibition at 10 µM: read-out: % inhibition of PF4 tetramer formation at single concentration of inhibitor; for inhibition at 3 µM: 3 μM inhibitor (column A); for IC50: read-out: IC50 of PF4 tetramer formation inhibition; for inhibition at 5 µM: 5 μM inhibitor; for inhibition at 10 µM: 10 μM inhibitor (column A)
Procedure, shortened: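 Monomer, dimer, trimer and tetramer fractions were quantified by densitometry after reducing 12% SDS-PAGE of BS3-cross-linked (0.2 mM, 30 min, room temperature) PF4. Before cross-linking, 10 μg/ml E. coli-expressed human WT PF4 in PBS was exposed to compound for 15 min at 37° C or 60 min at room temperature; controls lacked compound.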

Structure (SMILES)	inhibition at 1 µM	inhibition at 3 µM	IC50	inhibition at 5 µM	inhibition at 10 µM
COCCOCCN(CC(=O)C1C(=O)c2ccc(C(=O)c3ccc4c(c3)C(=O)C(C(=O)CN(CCOCCOC)C(=O)OC(C)(C)C)C4=O)cc2C1=O)C(=O)OC(C)(C)C (stereo not shown) [Example 391, tert-butyl N-[2-(5-{2-[2-(11,11-dimethyl-9-oxo-2,5,10-trioxa-8-azadodecan-8-yl)acetyl]-1,3-dioxo-2,3-dihydro-1H-indene-5-carbonyl}-1,3-dioxo-2,3-dihydro-1H-inden-2-yl)-2-oxoethyl]-N-[2-(2-methoxyethoxy)ethyl]carbamate]	1%	6%	–	–	–
CC(C)(C)OC(=O)NCCCC(=O)C1C(=O)c2ccc(C(=O)c3ccc4c(c3)C(=O)C(C(=O)CCCNC(=O)OC(C)(C)C)C4=O)cc2C1=O (stereo not shown) [Example 386, tert-butyl N-(4-{5-[2-(4-{[(tert-butoxy)carbonyl]amino}butanoyl)-1,3-dioxo-2,3-dihydro-1H-indene-5-carbonyl]-1,3-dioxo-2,3-dihydro-1H-inden-2-yl}-4-oxobutyl)carbamate]	13%	34%	–	–	–
O=C1c2ccc(Oc3ccc4c(c3)C(=O)C(C(=O)[C@@H]3C[C@H]3C(=O)O)C4=O)cc2C(=O)C1C(=O)[C@@H]1C[C@H]1C(=O)O (stereo partly drawn) [Example 262, (1R,2R)-2-({5-[(2-{[(1R,2R)-2-carboxycyclopropyl](hydroxy)methylidene}-1,3-dioxo-2,3-dihydro-1H-inden-5-yl)oxy]-1,3-dioxo-2,3-dihydro-1H-inden-2-ylidene}(hydroxy)methyl)cyclopropane-1-carboxylic acid]	49%	67%	1330 nM	–	–
O=C(NC1CC1)C1C(=O)c2ccc(C#Cc3ccc4c(c3)C(=O)C(C(=O)NC3CC3)C4=O)cc2C1=O (stereo not shown) [Example 300, N-cyclopropyl-5-{2-[2-(cyclopropylcarbamoyl)-1,3-dioxo-2,3-dihydro-1H-inden-5-yl]ethynyl}-1,3-dioxo-2,3-dihydro-1H-indene-2-carboxamide]	22%	32%	–	–	–
NCC(=O)C1C(=O)c2ccc(Oc3ccc4c(c3)C(=O)C(C(=O)CN)C4=O)cc2C1=O (stereo not shown) [Example 326, 2-(2-aminoacetyl)-5-{[2-(2-aminoacetyl)-1,3-dioxo-2,3-dihydro-1H-inden-5-yl]oxy}-2,3-dihydro-1H-indene-1,3-dione]	13%	26%	–	–	–
CS(=O)(=O)N1CCC(NC(=O)C2C(=O)c3ccc(S(=O)(=O)c4ccc5c(c4)C(=O)C(C(=O)NC4CCN(S(C)(=O)=O)CC4)C5=O)cc3C2=O)CC1 (stereo not shown) [Example 364, N-(1-methanesulfonylpiperidin-4-yl)-5-({2-[(1-methanesulfonylpiperidin-4-yl)carbamoyl]-1,3-dioxo-2,3-dihydro-1H-inden-5-yl}sulfonyl)-1,3-dioxo-2,3-dihydro-1H-indene-2-carboxamide]	13%	74%	1350 nM	–	–
O=C(NC1CCCC1)C1C(=O)c2ccc(C(c3ccc4c(c3)C(=O)C(C(=O)NC3CCCC3)C4=O)(C(F)(F)F)C(F)(F)F)cc2C1=O (stereo not shown) [Example 109, N-cyclopentyl-5-{2-[2-(cyclopentylcarbamoyl)-1,3-dioxo-2,3-dihydro-1H-inden-5-yl]-1,1,1,3,3,3-hexafluoropropan-2-yl}-1,3-dioxo-2,3-dihydro-1H-indene-2-carboxamide]	–	–	–	68%	59%
CC(C)(C)OC(=O)N1CCC[C@H]1CC(=O)C1C(=O)c2ccc(C(=O)c3ccc4c(c3)C(=O)C(C(=O)C[C@@H]3CCCN3C(=O)OC(C)(C)C)C4=O)cc2C1=O (stereo in doubt) [Example 112, tert-butyl (2S)-2-{2-[5-(2-{2-[(2S)-1-[(tert-butoxy)carbonyl]pyrrolidin-2-yl]acetyl}-1,3-dioxo-2,3-dihydro-1H-indene-5-carbonyl)-1,3-dioxo-2,3-dihydro-1H-inden-2-yl]-2-oxoethyl}pyrrolidine-1-carboxylate]	–	–	1200 nM	84%	89%
CC(C)(C)OC(=O)N[C@@H](CC(=O)O)C(=O)C1C(=O)c2ccc(C(=O)c3ccc4c(c3)C(=O)C(C(=O)[C@H](CC(=O)O)NC(=O)OC(C)(C)C)C4=O)cc2C1=O (stereo partly drawn) [Example 188, (3S)-3-{[(tert-butoxy)carbonyl]amino}-4-(5-{2-[(2S)-2-{[(tert-butoxy)carbonyl]amino}-3-carboxypropanoyl]-1,3-dioxo-2,3-dihydro-1H-indene-5-carbonyl}-1,3-dioxo-2,3-dihydro-1H-inden-2-yl)-4-oxobutanoic acid]	–	–	2300 nM	88%	94%
O=C1c2ccc(Oc3ccc4c(c3)C(=O)C(C(=O)C3CCC3)C4=O)cc2C(=O)C1C(=O)C1CCC1 (stereo not shown) [Example 297, 2-cyclobutanecarbonyl-5-[(2-cyclobutanecarbonyl-1,3-dioxo-2,3-dihydro-1H-inden-5-yl)oxy]-2,3-dihydro-1H-indene-1,3-dione]	38%	100%	1740 nM	–	–
CSCCC(=O)C1C(=O)c2ccc(S(=O)(=O)c3ccc4c(c3)C(=O)C(C(=O)CCSC)C4=O)cc2C1=O (stereo not shown) [Example 278, 2-[3-(methylsulfanyl)propanoyl]-5-({2-[3-(methylsulfanyl)propanoyl]-1,3-dioxo-2,3-dihydro-1H-inden-5-yl}sulfonyl)-2,3-dihydro-1H-indene-1,3-dione]	1%	18%	3000 nM	–	–
C[C@@H](C(=O)C1C(=O)c2ccc(C(=O)c3ccc4c(c3)C(=O)C(C(=O)[C@H](C)N(C)C(=O)OC(C)(C)C)C4=O)cc2C1=O)N(C)C(=O)OC(C)(C)C (stereo partly drawn) [Example 155, tert-butyl N-[(2S)-1-(5-{2-[(2S)-2-{[(tert-butoxy)carbonyl](methyl)amino}propanoyl]-1,3-dioxo-2,3-dihydro-1H-indene-5-carbonyl}-1,3-dioxo-2,3-dihydro-1H-inden-2-yl)-1-oxopropan-2-yl]-N-methylcarbamate]	–	–	2100 nM	95%	100%
O=C(CC1CCCC1)C1C(=O)c2ccc(S(=O)(=O)c3ccc4c(c3)C(=O)C(C(=O)CC3CCCC3)C4=O)cc2C1=O (stereo not shown) [Example 142, 2-(2-cyclopentylacetyl)-5-{[2-(2-cyclopentylacetyl)-1,3-dioxo-2,3-dihydro-1H-inden-5-yl]sulfonyl}-2,3-dihydro-1H-indene-1,3-dione]	–	–	18000 nM	95%	94%
COC1CCC(C(=O)C2C(=O)c3ccc(S(=O)(=O)c4ccc5c(c4)C(=O)C(C(=O)C4CCC(OC)CC4)C5=O)cc3C2=O)CC1 (stereo not shown) [Example 151, 2-(4-methoxycyclohexanecarbonyl)-5-{[2-(4-methoxycyclohexanecarbonyl)-1,3-dioxo-2,3-dihydro-1H-inden-5-yl]sulfonyl}-2,3-dihydro-1H-indene-1,3-dione]	–	–	~6000 nM	89%	100%
COC(=O)[C@@H]1C[C@H]1C(=O)C1C(=O)c2ccc(C(=O)c3ccc4c(c3)C(=O)C(C(=O)[C@@H]3C[C@H]3C(=O)OC)C4=O)cc2C1=O (stereo partly drawn) [Example 217, methyl (1R,2R)-2-(5-{2-[(1R,2R)-2-(methoxycarbonyl)cyclopropanecarbonyl]-1,3-dioxo-2,3-dihydro-1H-indene-5-carbonyl}-1,3-dioxo-2,3-dihydro-1H-indene-2-carbonyl)cyclopropane-1-carboxylate]	–	–	1200 nM	91%	95%

— patent US20250281424A1 (New York Blood Center, Inc, priority 2020, published 2025)
